# Measurements: patent publication US8481564B2, “Inhibitors of c-fms kinase” (Janssen Pharmaceutica, N.V., priority 2006, dated 2013)
# Columns and labels:
# [1] = test system: mouse bone-marrow derived macrophages; experiment: CSF-1-driven mouse bone-marrow derived macrophages assay (BrDU incorporation); format: cell-based; conditions: BMDM; CSF-1 stimulated mouse bone-marrow derived macrophages, 30 hrs culture, BrDU incorporation ELISA; read-out: mCSF driven proliferation BMDM (Mouse)
# Protocol: CSF-1-Driven Mouse Bone-Marrow Derived Macrophages Assay
# Macrophages are derived by culturing mouse bone marrow in alpha-MEM supplemented with 10% FCS (fetal calf serum) and 50 ng/ml recombinant mouse CSF-1 in bacteriologic dishes. On the sixth day, macrophages are detached from dishes, washed, and resuspended to 0.1 million cells/ml in alpha-MEM containing 10% FCS. One hundred ul of cell suspension are distributed per well into 96 well culture plates. Wells are further supplemented with the addition of 50 ul media containing 15 ng/ml CSF-1, 3 uM Indomethacin, and 3× of a dilution series of test compounds. The cells are cultured for 30 hrs at 37° C. and 5% CO2. During the final six hours, cultures are supplemented with an additional 30 ul of media containing a 1:500 dilution of bromodeoxyuridine (BrDU). At the end of the culture period, the media is removed and replaced with […] of fixative solution for 30′@room temperature. The fixative is then dispelled from the plates and the plates allowed to air dry. Incorporation of BrDU into the fixed, dried cells is quantified using a specific ELISA (Cat X1327K) from Exalpha Corporation (Watertown Mass.). Background values are determined from wells without BrDU reagent. IC50 values are calculated based on signal from CSF-1 stimulated cells without compound present.
# CSF-1R = CSF-1R (Homo sapiens (Human), UniProt P07333); experiment: Fluorescence polarization competition immunoassay (inhibition of CSF-1R phosphorylation of tyrosine on synthetic CSF-1R555-568 peptide); format: biochemical; conditions: CSF-1R fluorescence polarization assay; 0.7 nM CSF-1R, 1 mM ATP, 308 μM peptide; mean of at least three determinations
# Chain of CSF-1R (P07333 20-972): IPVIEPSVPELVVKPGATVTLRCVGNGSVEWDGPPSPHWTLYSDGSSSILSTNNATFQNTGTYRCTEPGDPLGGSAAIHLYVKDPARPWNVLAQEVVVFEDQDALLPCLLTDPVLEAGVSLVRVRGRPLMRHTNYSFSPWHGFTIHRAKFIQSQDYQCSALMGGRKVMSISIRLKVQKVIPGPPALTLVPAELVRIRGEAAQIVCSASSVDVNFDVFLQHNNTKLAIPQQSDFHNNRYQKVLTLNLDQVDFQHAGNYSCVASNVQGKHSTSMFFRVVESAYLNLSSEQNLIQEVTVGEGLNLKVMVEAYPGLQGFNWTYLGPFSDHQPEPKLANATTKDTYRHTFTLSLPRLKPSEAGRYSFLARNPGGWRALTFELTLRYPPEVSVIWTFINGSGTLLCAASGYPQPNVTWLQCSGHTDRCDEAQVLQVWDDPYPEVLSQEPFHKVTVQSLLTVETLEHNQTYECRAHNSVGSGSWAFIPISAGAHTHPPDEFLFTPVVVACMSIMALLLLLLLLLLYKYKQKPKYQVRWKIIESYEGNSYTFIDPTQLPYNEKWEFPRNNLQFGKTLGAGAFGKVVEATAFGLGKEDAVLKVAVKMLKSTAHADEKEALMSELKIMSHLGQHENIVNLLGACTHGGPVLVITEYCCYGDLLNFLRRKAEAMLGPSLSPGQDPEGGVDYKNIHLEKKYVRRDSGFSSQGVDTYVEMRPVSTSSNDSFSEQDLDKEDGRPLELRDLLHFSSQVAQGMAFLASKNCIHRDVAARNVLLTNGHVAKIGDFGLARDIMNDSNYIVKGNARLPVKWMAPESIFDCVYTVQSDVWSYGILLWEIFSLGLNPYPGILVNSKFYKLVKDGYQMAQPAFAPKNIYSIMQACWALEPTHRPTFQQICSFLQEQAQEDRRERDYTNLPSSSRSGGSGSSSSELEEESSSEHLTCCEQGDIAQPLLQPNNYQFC
# Protocol: Fluorescence Polarization Competition Immunoassay
# The kinase reaction was initiated by adding 1 μL of 10 mM ATP in assay buffer. […] Positive and negative control wells were included on each plate, where 4% DMSO in assay buffer was substituted for the compound; in addition, positive control wells received 1.2 μL of 50 mM EDTA before the start of the reaction.
# The plates were covered and incubated at room temperature for 80 min. Reactions were stopped by addition of 1.2 μL of 50 mM EDTA. […] The plates were covered, incubated for 30 min at room temperature, and the fluorescence polarization was read on an Analyst plate reader (Molecular Devices). […] Reported IC50 values are the mean of three of at least three determinations.
SMILES,IC50 [1] [nM],IC50 (CSF-1R) [nM]
"CN1C(=O)CC(c2ccc(NC(=O)c3nc(C#N)c[nH]3)c(C3=CCCCC3)c2)CC1=O [Example 14, 4-Cyano-1H-imidazole-2-carboxylic acid[2-cyclohex-1-enyl-4-(1-methyl-2,6-dioxo-piperidin-4-yl)-phenyl]-amide]",4,
"CN1CC(c2ccc(NC(=O)c3nc(C#N)c[nH]3)c(C3=CCCCC3)c2)CN(C)S1(=O)=O [Example 11, 4-Cyano-1H-imidazole-2-carboxylic acid [2-cyclohex-1-enyl-4-(2,6-dimethyl-1,1-dioxo-1λ^6-[1,2,6]thiadiazinan-4-yl)-phenyl]-amide]",2,
"CS(=O)(=O)N=C1NCC(c2ccc(NC(=O)c3nc(C#N)c[nH]3)c(C3=CCCCC3)c2)CN1 (stereo not drawn) [Example 13, 4-Cyano-1H-imidazole-2-carboxylic acid[2-cyclohex-1-enyl-4(2methanesulfonylimino-hexahydro-pyrimidin-5-yl)-phenyl]-amide]",100,2
"CN1CC(c2ccc(NC(=O)c3nc(C#N)c[nH]3)c(C3=CCC(C)(C)CC3)c2)CN(C)C1=O [Example 8, 4-Cyano-1H-imidazole-2-carboxylic acid [2-(4,4-dimethyl-cyclohex-1-enyl)-4-(1,3-dimethyl-2-oxo-hexahydro-pyrimidin-5-yl)-phenyl]-amide]",3,
"CC1(C)CC=C(c2cc(C3CC(=O)NC(=O)C3)ccc2NC(=O)c2nc(C#N)c[nH]2)CC1 [Example 3, 4-Cyano-1H-imidazole-2-carboxylic acid [2-(4,4-dimethyl-cyclohex-1-enyl)-4-(2,6-dioxo-piperidin-4-yl)-phenyl]-amide]",7,
"CN1CC(c2ccc(NC(=O)c3cc(C#N)c[nH]3)c(C3=CCCCCC3)c2)CN(C)C1=O [Example 10, 4-Cyano-1H-pyrrole-2-carboxylic acid [2-cyclohept-1-enyl-4-(1,3-dimethyl-2-oxo-hexahydro-pyrimidin-5-yl)-phenyl]-amide]",100,
"CN1CC(c2ccc(NC(=O)c3nc(C#N)c[nH]3)c(C3=CCCCCC3)c2)CN(C)C1=O [Example 9, 4-Cyano-1H-imidazole-2-carboxylic acid [2-cyclohept-1-enyl-4-(1,3-dimethyl-2-oxo-hexahydro-pyrimidin-5-yl)-phenyl]-amide]",5,
"N#Cc1c[nH]c(C(=O)Nc2ccc(C3CNS(=O)(=O)NC3)cc2C2=CCCCC2)n1 [Example 5, 4-Cyano-1H-imidazole-2-carboxylic acid [2-cyclohex-1-enyl-4-(1,1-dioxo-1λ^6-[1,2,6]thiadiazinan-4-yl)-phenyl]-amide]",60,
"N#CN=C1NCC(c2ccc(NC(=O)c3nc(C#N)c[nH]3)c(C3=CCCCC3)c2)CN1 (stereo not drawn) [Example 12, 4-Cyano-1H-imidazole-2-carboxylic acid[4-(2-cyanoimino-hexahydro-pyrimidin-5-yl)-2-cyclohex-1-enyl-phenyl]-amide]",40,3
"N#Cc1c[nH]c(C(=O)Nc2cc(CO)c(C3CNS(=O)(=O)NC3)cc2C2=CCCCC2)n1 [Example 6, 4-Cyano-1H-imidazole-2-carboxylic acid [2-cyclohex-1-enyl-4-(1,1-dioxo-1λ^6-[1,2,6]thiadiazinan-4-yl)-5-hydroxymethyl-phenyl]-amide]",60,10
"N#Cc1c[nH]c(C(=O)Nc2ccc(C3CC(=O)NC(=O)C3)cc2C2=CCCCC2)n1 [Example 1, 4-Cyano-1H-imidazole-2-carboxylic acid [2-cyclohex-1-enyl-4-(2,6-dioxo-piperidin-4-yl)-phenyl]-amide]",10,
"N#Cc1c[nH]c(C(=O)Nc2ccc(C3COC(=O)OC3)cc2C2=CCCCC2)n1 [Example 15, 4-Cyano-1H-imidazole-2-carboxylic acid[2-cyclohex-1-enyl-4-(2-oxo-[1,3]dioxan-5-yl)-phenyl]-amide]",,> 300
